Measurements taken from ChEMBL document CHEMBL3046001, “4-Thiazolidinone and 1-thia-3,4,9-triaza fluorene conjugates: synthesis, characterization and antimicrobial screening” (2013).
Values after ≈ are worked out from the molar mass of the structure shown. Active and inactive are the calls of the source. The rule behind the calls is not given here.

Experiments:
Pseudomonas fluorescens [1] = assay: Antibacterial activity against Pseudomonas fluorescens MTCC 2421 assessed as growth inhibition at 1250 ug/mL after 48 hr by agar diffusion method; type: functional; conditions: MTCC 2421, 48 h, read-out: DIZ
Penicillium chrysogenum [2] = assay: Antifungal activity against Penicillium chrysogenum MTCC 161 assessed as growth inhibition at 1250 ug/mL after 48 hr by agar diffusion method; type: functional; conditions: MTCC 161, 48 h, read-out: DIZ
Escherichia coli [3] = assay: Antibacterial activity against Escherichia coli MTCC 1573 assessed as growth inhibition at 1250 ug/mL after 48 hr by agar diffusion method; type: functional; conditions: MTCC 1573, 48 h, read-out: DIZ
Micrococcus luteus [4] = assay: Antibacterial activity against Micrococcus luteus MTCC 1538 assessed as growth inhibition at 1250 ug/mL after 48 hr by agar diffusion method; type: functional; conditions: MTCC 1538, 48 h, read-out: DIZ
Bacillus subtilis [5] = assay: Antibacterial activity against Bacillus subtilis MTCC 441 assessed as growth inhibition at 1250 ug/mL after 48 hr by agar diffusion method; type: functional; conditions: MTCC 441, 48 h, read-out: DIZ
Pseudomonas aeruginosa [6] = assay: Antibacterial activity against Pseudomonas aeruginosa MTCC 424 assessed as growth inhibition after 24 hr by tube dilution method; type: functional; conditions: MTCC 424, 24 h
Bacillus pumilus [7] = assay: Antibacterial activity against Bacillus pumilus MTCC 1456 assessed as growth inhibition at 1250 ug/mL after 48 hr by agar diffusion method; type: functional; conditions: MTCC 1456, 48 h, read-out: DIZ
Escherichia coli [8] = assay: Antibacterial activity against Escherichia coli MTCC 1573 assessed as growth inhibition at 100 ug/mL after 48 hr by agar diffusion method; type: functional; conditions: MTCC 1573, 48 h, read-out: DIZ
Micrococcus luteus [9] = assay: Antibacterial activity against Micrococcus luteus MTCC 1538 assessed as growth inhibition at 100 ug/mL after 48 hr by agar diffusion method; type: functional
Micrococcus luteus [10] = assay: Antibacterial activity against Micrococcus luteus MTCC 1538 assessed as growth inhibition at 500 ug/mL after 48 hr by agar diffusion method; type: functional; conditions: MTCC 1538, 48 h, read-out: DIZ
Penicillium chrysogenum [11] = assay: Antifungal activity against Penicillium chrysogenum MTCC 161 assessed as growth inhibition at 750 ug/mL after 48 hr by agar diffusion method; type: functional; conditions: MTCC 161, 48 h, read-out: DIZ
Bacillus pumilus [12] = assay: Antibacterial activity against Bacillus pumilus MTCC 1456 assessed as growth inhibition at 500 ug/mL after 48 hr by agar diffusion method; type: functional; conditions: MTCC 1456, 48 h, read-out: DIZ
Staphylococcus aureus = assay: Antibacterial activity against Staphylococcus aureus MTCC 1430 assessed as growth inhibition at 750 ug/mL after 48 hr by agar diffusion method; type: functional; conditions: MTCC 1430, 48 h, read-out: DIZ
Escherichia coli [13] = assay: Antibacterial activity against Escherichia coli MTCC 1573 assessed as growth inhibition at 250 ug/mL after 48 hr by agar diffusion method; type: functional; conditions: MTCC 1573, 48 h, read-out: DIZ
Pseudomonas aeruginosa [14] = assay: Antibacterial activity against Pseudomonas aeruginosa MTCC 424 assessed as growth inhibition at 1000 ug/mL after 48 hr by agar diffusion method; type: functional; conditions: MTCC 424, 48 h, read-out: DIZ
Aspergillus niger [15] = assay: Antifungal activity against Aspergillus niger MTCC 2546 assessed as growth inhibition at 1000 ug/mL after 48 hr by agar diffusion method; type: functional; conditions: MTCC 2546, 48 h, read-out: DIZ
Pseudomonas fluorescens [16] = assay: Antibacterial activity against Pseudomonas fluorescens MTCC 2421 assessed as growth inhibition at 1000 ug/mL after 48 hr by agar diffusion method; type: functional; conditions: MTCC 2421, 48 h, read-out: DIZ
Aspergillus niger [17] = assay: Antifungal activity against Aspergillus niger MTCC 2546 assessed as growth inhibition at 250 ug/mL after 48 hr by agar diffusion method; type: functional
Bacillus subtilis [18] = assay: Antibacterial activity against Bacillus subtilis MTCC 441 assessed as growth inhibition at 100 ug/mL after 48 hr by agar diffusion method; type: functional; conditions: for zone of inhibition at 100 µg/mL: MTCC 441, 48 h, read-out: DIZ
Penicillium chrysogenum [19] = assay: Antifungal activity against Penicillium chrysogenum MTCC 161 assessed as growth inhibition at 100 ug/mL after 48 hr by agar diffusion method; type: functional, organism-based
Micrococcus luteus [20] = assay: Antibacterial activity against Micrococcus luteus MTCC 1538 assessed as growth inhibition at 250 ug/mL after 48 hr by agar diffusion method; type: functional
Penicillium chrysogenum [21] = assay: Antifungal activity against Penicillium chrysogenum MTCC 161 assessed as growth inhibition after 24 hr by tube dilution method; type: functional; conditions: MTCC 161, 24 h
Bacillus pumilus [22] = assay: Antibacterial activity against Bacillus pumilus MTCC 1456 assessed as growth inhibition at 750 ug/mL after 48 hr by agar diffusion method; type: functional; conditions: MTCC 1456, 48 h, read-out: DIZ
Bacillus pumilus [23] = assay: Antibacterial activity against Bacillus pumilus MTCC 1456 assessed as growth inhibition after 24 hr by tube dilution method; type: functional; conditions: MTCC 1456, 24 h

`O=C1CSC(c2cccc3ccccc23)N1c1nnc2c3cc(Cl)ccc3nc-2s1` (configuration not stated) gave a zone of inhibition at 1250 µg/mL (Pseudomonas fluorescens [1]) of 24 mm, a zone of inhibition at 1250 µg/mL (Penicillium chrysogenum [2]) of 18 mm and a zone of inhibition at 1250 µg/mL (Escherichia coli [3]) of 20 mm. It also gave a zone of inhibition at 1250 µg/mL (Micrococcus luteus [4]) of 20 mm, a zone of inhibition at 1250 µg/mL (Bacillus subtilis [5]) of 20 mm and an MIC (Pseudomonas aeruginosa [6]) of 40 µg/mL (≈ 89.1 µM). The zone of inhibition at 1250 µg/mL (Bacillus pumilus [7]) was 20 mm, the zone of inhibition at 100 µg/mL (Escherichia coli [8]) was 7 mm and the “growth inhibition (GI)” value (Micrococcus luteus [9]) was “inactive”. For the same compound, the zone of inhibition at 500 µg/mL (Micrococcus luteus [10]) was 8 mm, the zone of inhibition at 750 µg/mL (Penicillium chrysogenum [11]) was 15 mm and the zone of inhibition at 500 µg/mL (Bacillus pumilus [12]) was 13 mm. It also gave a zone of inhibition at 750 µg/mL (Staphylococcus aureus) of 8 mm, a zone of inhibition at 250 µg/mL (Escherichia coli [13]) of 10 mm and a zone of inhibition at 1000 µg/mL (Pseudomonas aeruginosa [14]) of 15 mm. It also gave a zone of inhibition at 1000 µg/mL (Aspergillus niger [15]) of 15 mm, a zone of inhibition at 1000 µg/mL (Pseudomonas fluorescens [16]) of 20 mm and a zone of inhibition at 250 µg/mL (Aspergillus niger [17]; MTCC 2546, 48 h, read-out: DIZ) of 8 mm. The “growth inhibition (GI)” value (Bacillus subtilis [18]) was “inactive”, the “growth inhibition (GI)” value (Penicillium chrysogenum [19]) was “inactive” and the “growth inhibition (GI)” value (Micrococcus luteus [20]) was “inactive”. For the same compound, the MIC (Penicillium chrysogenum [21]) was 150 µg/mL (≈ 334 µM), the zone of inhibition at 750 µg/mL (Bacillus pumilus [22]) was 15 mm and the MIC (Bacillus pumilus [23]) was 40 µg/mL (≈ 89.1 µM).

`O=C1CSC(c2cccc3ccccc23)N1c1nnc2c3ccccc3nc-2s1` (configuration not stated) was tested, and the zone of inhibition at 1250 µg/mL (Pseudomonas fluorescens [1]) was 22 mm, the zone of inhibition at 1250 µg/mL (Penicillium chrysogenum [2]) was 15 mm and the zone of inhibition at 1250 µg/mL (Escherichia coli [3]) was 18 mm. The zone of inhibition at 1250 µg/mL (Micrococcus luteus [4]) was 16 mm, the zone of inhibition at 1250 µg/mL (Bacillus subtilis [5]) was 20 mm and the MIC (Pseudomonas aeruginosa [6]) was 40 µg/mL (≈ 96.5 µM). The zone of inhibition at 1250 µg/mL (Bacillus pumilus [7]) was 26 mm, the zone of inhibition at 100 µg/mL (Escherichia coli [8]) was 8 mm and the “growth inhibition (GI)” value (Micrococcus luteus [9]) was “inactive”. For the same compound, the zone of inhibition at 500 µg/mL (Micrococcus luteus [10]) was 8 mm, the zone of inhibition at 750 µg/mL (Penicillium chrysogenum [11]) was 10 mm and the zone of inhibition at 500 µg/mL (Bacillus pumilus [12]) was 11 mm. For the same compound, the zone of inhibition at 750 µg/mL (Staphylococcus aureus) was 12 mm, the zone of inhibition at 250 µg/mL (Escherichia coli [13]) was 10 mm and the zone of inhibition at 1000 µg/mL (Pseudomonas aeruginosa [14]) was 17 mm. For the same compound, the zone of inhibition at 1000 µg/mL (Aspergillus niger [15]) was 15 mm, the zone of inhibition at 1000 µg/mL (Pseudomonas fluorescens [16]) was 19 mm and the “growth inhibition (GI)” value (Aspergillus niger [17]) was “inactive”. For the same compound, the zone of inhibition at 100 µg/mL (Bacillus subtilis [18]) was 8 mm, the “growth inhibition (GI)” value (Penicillium chrysogenum [19]) was “inactive” and the “growth inhibition (GI)” value (Micrococcus luteus [20]) was “inactive”. For the same compound, the MIC (Penicillium chrysogenum [21]) was 200 µg/mL (≈ 482 µM), the zone of inhibition at 750 µg/mL (Bacillus pumilus [22]) was 15 mm and the MIC (Bacillus pumilus [23]) was 20 µg/mL (≈ 48.2 µM).

In the case of `CC1SCC(=O)N1c1nnc2c3cc(Cl)ccc3nc-2s1` (configuration not stated), the zone of inhibition at 1250 µg/mL (Pseudomonas fluorescens [1]) was 19 mm, the zone of inhibition at 1250 µg/mL (Penicillium chrysogenum [2]) was 20 mm and the zone of inhibition at 1250 µg/mL (Escherichia coli [3]) was 21 mm. The zone of inhibition at 1250 µg/mL (Micrococcus luteus [4]) was 19 mm, the zone of inhibition at 1250 µg/mL (Bacillus subtilis [5]) was 21 mm and the MIC (Pseudomonas aeruginosa [6]) was 50 µg/mL (≈ 148 µM). For the same compound, the zone of inhibition at 1250 µg/mL (Bacillus pumilus [7]) was 18 mm, the zone of inhibition at 100 µg/mL (Escherichia coli [8]) was 9 mm and the “growth inhibition (GI)” value (Micrococcus luteus [9]) was “inactive”. It also gave a zone of inhibition at 500 µg/mL (Micrococcus luteus [10]) of 10 mm, a zone of inhibition at 750 µg/mL (Penicillium chrysogenum [11]) of 14 mm and a zone of inhibition at 500 µg/mL (Bacillus pumilus [12]) of 12 mm. It also gave a zone of inhibition at 750 µg/mL (Staphylococcus aureus) of 13 mm, a zone of inhibition at 250 µg/mL (Escherichia coli [13]) of 11 mm and a zone of inhibition at 1000 µg/mL (Pseudomonas aeruginosa [14]) of 18 mm. The zone of inhibition at 1000 µg/mL (Aspergillus niger [15]) was 15 mm, the zone of inhibition at 1000 µg/mL (Pseudomonas fluorescens [16]) was 15 mm and the “growth inhibition (GI)” value (Aspergillus niger [17]) was “inactive”. The zone of inhibition at 100 µg/mL (Bacillus subtilis [18]) was 8 mm, the “growth inhibition (GI)” value (Penicillium chrysogenum [19]) was “inactive” and the “growth inhibition (GI)” value (Micrococcus luteus [20]) was “inactive”. The MIC (Penicillium chrysogenum [21]) was 250 µg/mL (≈ 742 µM), the zone of inhibition at 750 µg/mL (Bacillus pumilus [22]) was 13 mm and the MIC (Bacillus pumilus [23]) was 40 µg/mL (≈ 119 µM).
